Source: ChEMBL document CHEMBL3507680, “University of Dundee, Gates Library screen for HepG2 cell viability”

Assay: Human HepG2 cell viability assay in 384 well format
Type: toxicity, cell-based
Set-up: dose 125 nL, time 70.5 hour; cytotoxicity at 70.5 h: concentration not given beside the values
Conditions: HepG2 cells, read-out: Inhibition

Compound	cytotoxicity at 70.5 h
CCC(NC1CCN(S(C)(=O)=O)CC1)c1cccs1 (stereo not given)	-15.6%
Cc1cnc(C(=O)N2CCCC(Cn3cc(CC(C)C)nn3)C2)cn1 (stereo not given)	-8.09%
Cc1cnccc1CN(C)C(=O)c1ccc(Cn2cnnn2)cc1	37.3%
Nc1ccc(C(=O)N2CCCC(c3nccn3Cc3cscn3)C2)cn1 (stereo not given)	-3.06%
CCC(CO)N(Cc1ccccn1)C(=O)c1ccc(=O)[nH]c1 (stereo not given)	-4.96%
CCn1c(CN2CCCC2)nnc1C1CCN(Cc2ccccn2)CC1	18.4%
CCC[C@@H]1CN(c2ncnc3sccc23)C[C@H]1C(=O)O	-5.95%
COCc1cc(N(C)Cc2cc(C(C)(C)C)n[nH]2)ncn1	-7.91%
Cc1ccc(C(NC(=O)CCCN2CCCCC2)C(=O)O)cc1 (stereo not given)	-12.7%
Cc1cc(C)c(Cn2cncn2)cc1CN1CC[C@H](CO)[C@@H](O)C1	6.21%
COCCN1C[C@H]2CC[C@@H]1CN(C(=O)CCc1c(C)nn(C)c1C)C2	-3.68%
CC(=O)c1cc(C(=O)N2CCC(CC(C)C)C2)c(=O)[nH]c1C (stereo not given)	-12.6%
Cc1nc2c(c(N[C@@H](CO)C(N)=O)n1)Cc1ccccc1OC2	-9.03%
CC(=O)c1cccc(CN2CC(Oc3ccccc3C)C2)c1	-3.39%
Cc1cc(C)n(CCCN(CCN2CCOCC2)Cc2ccco2)n1	-4.4%
CNC(=O)[C@@H]1C[C@H](n2cc(-c3ccc(CN4CC=CC4)cc3)nn2)CN1	27%
O=C1CCC2(CCN(c3cccc(C(F)(F)F)n3)CC2)CN1CCO	-5.14%
O=C1CCCN1C1CCCN(CCOc2ccc(F)cc2)C1 (stereo not given)	-6.91%
CC(C)CN(Cc1ccsc1)C(=O)CCCn1cncn1	-0.11%
CCOC(=O)C1CCCCN1Cc1c[nH]nc1-c1cc2ccccc2o1 (stereo not given)	-7.32%
CN1CSC[C@H]1C(=O)N1CCC(CCc2ccccc2)CC1	-5.84%
Cn1c(N2CC[C@H](O)C2)nc2cc(C(N)=O)ccc21	5.31%
Cc1cc(C)c2[nH]c(=O)c(CN3CCC(O)(CN(C)C)C3)cc2c1 (stereo not given)	-15.6%
Cc1nc(CCN2CCCCC2)n(-c2ccc(F)cc2)n1	16.5%
CCOCCc1nc(CCc2ccccc2)n[nH]1	-6.03%
Cc1ccc(C(=O)NCCC2CN(c3cnn(C)c(=O)c3)CCO2)s1 (stereo not given)	-3.44%
CCc1ccc(C(=O)N2CC[C@](C)(O)[C@H](C)C2)[nH]1	-7.19%
CCOC(=O)CNC(=O)N1CCOC(CCc2ccccc2)C1 (stereo not given)	15.8%

Compound	cytotoxicity at 70.5 h
CN(CCCN1CCOCC1)[C@@H]1c2ccccc2C2(CCNCC2)[C@H]1O	-7.93%
Cc1cn2cc(C(=O)NC3CCCN(c4ncccn4)C3)ccc2n1 (stereo not given)	1.08%
CCN1CC(CN(C)Cc2nc(-c3ccc(F)cc3)oc2C)CC1=O (stereo not given)	4.29%
Cc1cc2[nH]c(=O)oc2cc1S(=O)(=O)N1CCC(N2CCCC2=O)CC1	-9.07%
Cc1nonc1CC(=O)N1CCC2(CCCN(C3CCOCC3)C2=O)C1 (stereo not given)	-5.27%
O=C(NN1CCCc2ccccc21)c1c[nH]c(=O)[nH]1	-7.94%
COc1cccc(C(=O)N(C)C(C)c2c(C)n[nH]c2C)c1OC (stereo not given)	-5.83%
CCc1nccn1CCCNc1nccc(-c2c(C)nn(C)c2C)n1	-16.7%
Cc1cnccc1CN(C)Cc1c[nH]nc1-c1ccc(F)cc1F	3.5%
O=C(COc1ccc(F)cc1F)N1CCOCC(O)(CN2CCCC2)C1 (stereo not given)	-2.46%
CC1CN(c2ccccc2Cl)C(=O)CN1C(=O)c1c[nH]c(=O)c(Cl)c1 (stereo not given)	-0.811%
Cc1noc(C)c1CN1C[C@@H](C(=O)O)[C@H](c2ccccc2)C1	-5.34%
CN(Cc1cccnc1N)Cc1cccc2ncccc12	-15.9%
COCc1ccc(C(=O)N2CCC(c3nccn3CC3CC3)CC2)o1	-0.956%
CC(=O)NCc1cc2n(n1)CCN(Cc1cc(-c3ccccc3)no1)C2	-18.6%
Cc1ccc2nc(C)cc(C(=O)N[C@H]3COC[C@@H]3N3CCOCC3)c2c1	-6.73%
Cc1n[nH]c(C)c1Sc1ccccc1NC(=O)N1CCCC(C(N)=O)C1 (stereo not given)	5.35%
CCn1c(C)nnc1SCCNc1nc(C)ncc1S(C)(=O)=O	-11.4%
Cc1nc(C(C)NC(=O)c2cn(CCC3CCCCC3)nn2)n[nH]1 (stereo not given)	-23.9%
N#Cc1ccccc1CN1C[C@@H]2CC[C@H](C1)N(CC1CCC1)C2=O	-4.58%
CCc1nc(Cn2ccnc2-c2nccn2C)no1	-7.78%
COc1ccc2[nH]c(=O)c(CN(C)C(C)c3ccccn3)cc2c1 (stereo not given)	-7.2%
Cc1nn(-c2ccccc2)c2nc(C(C)(C)CN3CCN(C)CC3)[nH]c12	-1.61%
COc1ccc(C(=O)O)cc1-c1cccc(C(C)N(C)C)c1 (stereo not given)	0.229%
Cc1nc(C(F)(F)F)nc(N2CCC(O)(C(=O)O)CC2)c1C	-6.27%
CC(C)(C)N1CC(C(=O)N2CCN(CCn3cncn3)CC2)CC1=O (stereo not given)	-3.91%
Cn1c(Cn2ccnc2)nnc1C1CCN(C(=O)c2ccccn2)CC1	5.03%
